In paper PMC6269904, “Two New Monoterpene Glycosides from Qing Shan Lu Shui Tea with Inhibitory Effects on Leukocyte-Type 12-Lipoxygenase Activity” (Molecules, 2013) one finds IC50 and no inhibition data, which are given here for three compounds.

The target of assay [1] is T1, leukocyte-type 12-lipoxygenase (leukocyte-type 12-LOX), porcine (Sus scrofa, UniProt P16469).
T1 construct: gene ALOX15; partially purified from J774A.1 cells overexpressing the porcine enzyme
T1 sequence (P16469 1-663): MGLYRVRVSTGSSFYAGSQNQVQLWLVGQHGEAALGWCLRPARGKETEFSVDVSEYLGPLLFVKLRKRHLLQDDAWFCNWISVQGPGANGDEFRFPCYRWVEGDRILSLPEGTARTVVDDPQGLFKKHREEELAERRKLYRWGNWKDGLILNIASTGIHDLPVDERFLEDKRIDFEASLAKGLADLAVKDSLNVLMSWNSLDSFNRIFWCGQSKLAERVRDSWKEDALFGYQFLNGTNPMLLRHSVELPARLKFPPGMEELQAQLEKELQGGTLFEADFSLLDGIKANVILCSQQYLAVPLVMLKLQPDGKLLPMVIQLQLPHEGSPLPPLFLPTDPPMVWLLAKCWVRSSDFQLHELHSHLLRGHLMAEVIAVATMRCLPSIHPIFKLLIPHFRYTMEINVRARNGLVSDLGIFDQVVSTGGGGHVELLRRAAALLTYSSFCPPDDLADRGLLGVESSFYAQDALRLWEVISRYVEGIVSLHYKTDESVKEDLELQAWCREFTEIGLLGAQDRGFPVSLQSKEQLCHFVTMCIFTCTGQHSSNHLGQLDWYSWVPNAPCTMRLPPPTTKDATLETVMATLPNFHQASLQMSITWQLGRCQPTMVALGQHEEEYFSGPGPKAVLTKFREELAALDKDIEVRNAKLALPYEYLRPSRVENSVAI
Put plainly: RP-HPLC of HETE products after reduction. In kind it is biochemical.

Assay [2] addresses T1, leukocyte-type 12-lipoxygenase (leukocyte-type 12-LOX), porcine. Put plainly: RP-HPLC of HETE products ([…] nm) after reduction. As to conditions: 25 μM arachidonic acid, 100 mM Tris-HCl pH 7.4, 30 °C, 5 min preincubation; partially purified enzyme. In kind it is biochemical.

Turning to `C/C(=C\CO[C@@H]1O[C@H](CO)[C@@H](OC(=O)/C=C/c2ccc(O)cc2)[C@H](O[C@@H]2O[C@@H](C)[C@H](O)[C@@H](O)[C@H]2O)[C@H]1O)C/C=C/C(C)(C)OO` [compound 1, (2E,5E)-7-hydroperoxy-3,7-dimethyl-2,5-octadienyl-O-(α-L-rhamnopyranosyl)-(1″→3′)-(4′″-O-trans-p-coumaroyl)-β-D-glucopyranoside], in assay [1], the IC50 came out at 1700 nM. Same read-out and setting: the result for `C/C(=C\CO[C@@H]1O[C@H](CO)[C@@H](OC(=O)/C=C\c2ccc(O)cc2)[C@H](O[C@@H]2O[C@@H](C)[C@H](O)[C@@H](O)[C@H]2O)[C@H]1O)C/C=C/C(C)(C)OO` [compound 2, (2E,5E)-7-hydroperoxy-3,7-dimethyl-2,5-octadienyl-O-(α-L-rhamnopyranosyl)-(1′′→3′)-(4′′′-O-cis-p-coumaroyl)-β-D-glucopyranoside] reads 700 nM. For `O=C(O)/C=C/c1ccc(O)cc1` [p-coumaric acid], the no inhibition result in assay [2] is recorded as “showed no inhibition on leukocyte-type 12-LOX activity”.

A word on the IC50: it is the concentration needed to halve the response being measured.
